Patent US9101638B2, “Boronic acid derivatives and therapeutic uses thereof” (Rempex Pharmaceuticals, Inc., priority 2013, dated 2015)
Structures can show the parent of a compound that is named as a salt.

What was measured:
Thrombin = molecular target: T1, Thrombin (Homo sapiens, UniProt P00734); test: Serine protease inhibition: thrombin; type: biochemical, mammalian
T1 construct: Thrombin; MPBio; 19491880; purchased MPBio 19491880
Description: (§1) The effect of selected BLIs on the enzymatic activity of some common mammalian serine proteases was evaluated.
(§2) 50 μl of the diluted enzyme was mixed with 50 μl of inhibitor at various concentrations and 50 μl of corresponding buffer (Table 7). Reaction mixtures were incubated for 10 min at 37° C. Subsequently, 50 μl of corresponding substrate (Table 7) was added and absorbance or fluorescence was monitored for 30 min on SpectraMax M2 plate reader (Molecular Devices). 4-(2-Aminoethyl)benzenesulfonyl fluoride hydrochloride (AEBSF) and leupeptin were used as positive controls. Rates of reaction were calculated and presented relative to “no treatment” control.

Urokinase = molecular target: T2, Urokinase (Homo sapiens, UniProt P00749); test: Serine protease inhibition: urokinase; type: biochemical, mammalian
T2 construct: purchased Calbiochem 672112
Description: as §1, §2

Chymase = molecular target: T3, Chymase (Homo sapiens, UniProt P23946); test: Serine protease inhibition: chymase; type: biochemical, mammalian
T3 construct: purchased Enzo Lifescience BML-SE281
T3 sequence (P23946 22-247): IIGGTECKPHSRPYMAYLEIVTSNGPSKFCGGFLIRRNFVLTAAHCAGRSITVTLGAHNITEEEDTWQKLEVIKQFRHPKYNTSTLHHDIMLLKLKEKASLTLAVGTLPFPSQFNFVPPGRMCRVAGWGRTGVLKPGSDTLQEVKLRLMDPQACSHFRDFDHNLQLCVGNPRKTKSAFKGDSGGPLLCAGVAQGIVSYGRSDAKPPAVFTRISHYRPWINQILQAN
Description: as §1, §2

Neutrophil elastase = molecular target: T4, Neutrophil elastase (Homo sapiens, UniProt P08246); test: Serine protease inhibition: neutrophil elastase; type: biochemical, mammalian
T4 construct: purchased Calbiochem 324681
T4 sequence (P08246 30-267): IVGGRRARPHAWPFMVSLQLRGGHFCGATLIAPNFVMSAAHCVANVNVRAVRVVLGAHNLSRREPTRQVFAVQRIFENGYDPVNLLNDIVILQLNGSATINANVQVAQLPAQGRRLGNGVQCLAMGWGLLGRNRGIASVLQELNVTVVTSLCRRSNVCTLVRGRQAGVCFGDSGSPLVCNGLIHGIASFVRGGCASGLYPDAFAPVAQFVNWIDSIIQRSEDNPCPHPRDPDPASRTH
Description: as §1, §2

KP1005 (CTX-M-14) = test: Potentiation of aztreonam, strain KP1005; type: cell-based
KP1009 (CTX-M-15) [1] = test: Potentiation of aztreonam, strain KP1009; type: cell-based
ec308 (SHV-5) [2] = test: Potentiation of aztreonam, strain ec308; type: cell-based; settings: minimum BLI concentration inhibiting growth with 4 μg/mL aztreonam
ec302 (TEM-10) [3] = test: Potentiation of aztreonam, strain ec302; type: cell-based
KP1004 (K-2) = test: Potentiation of aztreonam, strain KP1004; type: cell-based; settings: minimum BLI concentration inhibiting growth with 4 μg/mL aztreonam
ECL1002 = test: Potentiation of aztreonam, strain ECL1002; type: cell-based; settings: minimum BLI concentration inhibiting growth with 4 μg/mL aztreonam
EC1010 (CMY-6) [4] = test: Potentiation of aztreonam, strain EC1010; type: cell-based
ec308 (SHV-5) [5] = test: Potentiation of tigemonam, strain ec308; type: cell-based; settings: minimum BLI concentration inhibiting growth with 4 μg/mL tigemonam
ec302 (TEM-10) [6] = test: Potentiation of tigemonam, strain ec302; type: cell-based
EC1010 (CMY-6) [7] = type: cell-based
CTX-M-14 = CTX-M-14 (Escherichia coli, UniProt Q9L5C7); test: Inhibition of nitrocefin cleavage by purified CTX-M-14; type: biochemical; settings: nitrocefin reporter substrate, purified enzyme; read-out: Ki (CTX-M-14, NCF)
CTX-M-14, sequence (Q9L5C7 entry or part of it): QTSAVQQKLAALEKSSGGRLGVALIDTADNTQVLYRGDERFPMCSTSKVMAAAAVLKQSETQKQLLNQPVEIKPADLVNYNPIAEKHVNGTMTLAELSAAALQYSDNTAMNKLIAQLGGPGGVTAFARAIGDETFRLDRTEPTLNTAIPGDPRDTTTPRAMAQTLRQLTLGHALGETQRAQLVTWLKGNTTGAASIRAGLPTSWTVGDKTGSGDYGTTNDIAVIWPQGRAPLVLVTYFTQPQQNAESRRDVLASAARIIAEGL
Description: (§3) Purified enzymes were mixed with various concentrations of inhibitors in reaction buffer and incubated for 10 min at room temperature. Nitrocefin was added and substrate cleavage profiles were recorded at 490 nm every 10 sec for 10 min.

SHV-12 = SHV-12 (Klebsiella pneumoniae, UniProt P0AD64, E235K/G234S/L31Q); test: Inhibition of nitrocefin cleavage by purified SHV-12; type: biochemical; settings: nitrocefin reporter substrate, purified enzyme; read-out: Ki (SHV-12, NCF)
SHV-12, sequence (P0AD64 22-286 L31Q/G234S/E235K): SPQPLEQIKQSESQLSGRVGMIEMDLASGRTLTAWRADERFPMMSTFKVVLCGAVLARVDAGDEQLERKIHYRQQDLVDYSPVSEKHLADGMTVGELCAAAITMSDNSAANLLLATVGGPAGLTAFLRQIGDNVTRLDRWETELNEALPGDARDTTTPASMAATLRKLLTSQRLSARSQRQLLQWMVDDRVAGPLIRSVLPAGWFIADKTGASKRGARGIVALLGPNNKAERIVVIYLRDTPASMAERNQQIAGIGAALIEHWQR
Description: as §3

P99 = P99 (Enterobacter cloacae, UniProt P05364); test: Inhibition of nitrocefin cleavage by purified P99; type: biochemical; settings: nitrocefin reporter substrate, purified enzyme; read-out: Ki (P99, NCF)
P99, sequence (P05364 21-381): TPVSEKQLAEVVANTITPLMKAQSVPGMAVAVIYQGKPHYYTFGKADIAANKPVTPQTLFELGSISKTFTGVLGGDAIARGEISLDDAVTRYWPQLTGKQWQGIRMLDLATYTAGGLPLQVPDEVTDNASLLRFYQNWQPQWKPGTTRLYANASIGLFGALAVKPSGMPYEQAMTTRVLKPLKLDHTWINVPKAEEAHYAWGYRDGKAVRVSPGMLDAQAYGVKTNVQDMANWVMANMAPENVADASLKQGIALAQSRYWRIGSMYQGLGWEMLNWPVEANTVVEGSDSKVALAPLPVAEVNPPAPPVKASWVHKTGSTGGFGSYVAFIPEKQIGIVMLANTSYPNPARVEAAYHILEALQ
Description: as §3

OXA-48 = OXA-48 (Klebsiella pneumoniae, UniProt Q6XEC0); test: Inhibition of nitrocefin cleavage by purified OXA-48; type: biochemical; settings: nitrocefin reporter substrate, purified enzyme; read-out: Ki (OXA-48, NCF)
OXA-48, sequence (Q6XEC0 23-265 limits assumed): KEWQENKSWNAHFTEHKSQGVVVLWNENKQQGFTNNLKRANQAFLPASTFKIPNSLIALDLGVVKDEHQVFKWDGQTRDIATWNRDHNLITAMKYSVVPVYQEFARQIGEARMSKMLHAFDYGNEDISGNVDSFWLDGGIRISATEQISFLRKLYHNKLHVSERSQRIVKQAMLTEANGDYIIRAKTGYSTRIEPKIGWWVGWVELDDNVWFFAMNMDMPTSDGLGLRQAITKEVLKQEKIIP
Description: as §3

PAM1032/KPC-2 = test: Biapenem potentiation in PAM1032/KPC-2 (MexAB-OprM overexpressed); type: cell-based, Pseudomonas aeruginosa; settings: BLI potency to decrease biapenem MIC 64-fold, 32 to 0.5 μg/ml; efflux proficient strain
Description: (§4) Efflux of BLIs from Pseudomonas aeruginosa by the MexAB-OprM efflux pump was also evaluated. […] Due to expression of KPC-2 both strains became resistant to biapenem. […] Potency of BLIs to potentiate biapenem in these strains was determined. […] The ratio of MPC64 values for each BLI in PAM1032/KPC-2 (efflux proficient) and PAM1154/KPC-2 (efflux deficient) was determined to generate the Efflux Index (EI).

PAM1154/KPC-2 = test: Biapenem potentiation in PAM1154/KPC-2 (MexAB-OprM lacking); type: cell-based, Pseudomonas aeruginosa
Description: as §4

CathepsinA = molecular target: T5, CathepsinA (Homo sapiens, UniProt P10619); test: Serine protease inhibition: cathepsin A; type: biochemical, mammalian; settings: Table 8B; read-out: IC50 CathepsinA
T5 construct: purchased R&D Systems 1049-SE
T5 sequence (P10619 29-480): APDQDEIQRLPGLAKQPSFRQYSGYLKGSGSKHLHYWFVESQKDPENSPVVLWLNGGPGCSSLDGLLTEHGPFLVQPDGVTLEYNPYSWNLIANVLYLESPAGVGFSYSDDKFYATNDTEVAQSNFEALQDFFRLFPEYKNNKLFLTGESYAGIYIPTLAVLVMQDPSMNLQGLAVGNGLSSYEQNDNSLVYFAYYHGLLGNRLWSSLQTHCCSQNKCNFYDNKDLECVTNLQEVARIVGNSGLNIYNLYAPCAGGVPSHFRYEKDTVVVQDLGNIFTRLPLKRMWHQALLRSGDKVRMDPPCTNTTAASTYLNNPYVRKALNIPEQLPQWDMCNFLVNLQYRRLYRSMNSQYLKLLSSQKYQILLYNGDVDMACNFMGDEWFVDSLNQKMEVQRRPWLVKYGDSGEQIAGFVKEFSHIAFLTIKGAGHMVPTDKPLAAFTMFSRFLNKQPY
Description: as §1, §2

CathepsinG = molecular target: T6, CathepsinG (Homo sapiens, UniProt P08311); test: Serine protease inhibition: cathepsin G; type: biochemical, mammalian; settings: Table 8B
T6 construct: purchased EMD Millipore 219373
T6 sequence (P08311 21-244): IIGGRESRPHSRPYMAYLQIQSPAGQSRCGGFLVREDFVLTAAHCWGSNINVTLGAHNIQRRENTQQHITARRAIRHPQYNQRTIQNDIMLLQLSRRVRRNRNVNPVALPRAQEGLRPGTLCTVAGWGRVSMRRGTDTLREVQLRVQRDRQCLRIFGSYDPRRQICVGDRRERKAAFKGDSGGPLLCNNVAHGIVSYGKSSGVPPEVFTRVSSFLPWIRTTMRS
Description: as §1, §2

KP1009 (CTX-M-15) [8] = test: Potentiation of tigemonam, strain KP1009; settings: minimum BLI concentration inhibiting growth with 4 μg/mL tigemonam

Compound: NCCc1ccc(S(=O)(=O)F)cc1 [AEBSF, 4-(2-Aminoethyl)benzenesulfonyl fluoride hydrochloride, reference compound]
- IC50 (Thrombin): 100 µM
- IC50 (Urokinase): 8.2 µM
- IC50 (Chymase): 375 µM
- IC50 (Neutrophil elastase): > 500 µM

Compound: O=C(N[C@H]1Cc2cccc(C(=O)O)c2OB1O)c1cccnc1 [Compound 12, (R)-2-hydroxy-3-(nicotinamido)-3,4-dihydro-2H-benzo[e][1,2]oxaborinine-8-carboxylic acid]
- AZT MPC4 CTX-M-14 KP1005 (KP1005 (CTX-M-14)): Y (key: X = MIC of less than 1 μg/mL; Y = MIC of 1 μg/mL to 10 μg/mL; Z = MIC of greater than 10 μg/mL)
- AZT MPC4 CTX-M-15 KP1009 (KP1009 (CTX-M-15) [1]): Y (key: X = MIC of less than 1 μg/mL; Y = MIC of 1 μg/mL to 10 μg/mL; Z = MIC of greater than 10 μg/mL)
- AZT MPC4 SHV-5 ec308 (ec308 (SHV-5) [2]): Y (Y = MIC of 1 μg/mL to 10 μg/mL)
- AZT MPC4 TEM-10 ec302 (ec302 (TEM-10) [3]): X (key: X = MIC of less than 1 μg/mL; Y = MIC of 1 μg/mL to 10 μg/mL; Z = MIC of greater than 10 μg/mL)
- AZT MPC4 K-2 KP1004 (KP1004 (K-2)): Y (Y = MIC of 1 μg/mL to 10 μg/mL)
- AZT MPC4 ECL1002 (ECL1002): X (X = MIC of less than 1 μg/mL)
- AZT MPC4 CMY-6 EC1010 (EC1010 (CMY-6) [4]): Y (key: X = MIC of less than 1 μg/mL; Y = MIC of 1 μg/mL to 10 μg/mL; Z = MIC of greater than 10 μg/mL)
- TIG MPC4 SHV-5 ec308 (ec308 (SHV-5) [5]): Y (Y = MIC of 1 μg/mL to 10 μg/mL)
- TIG MPC4 TEM-10 ec302 (ec302 (TEM-10) [6]): Y (key: X = MIC of less than 1 μg/mL; Y = MIC of 1 μg/mL to 10 μg/mL; Z = MIC of greater than 10 μg/mL)
- TIG MPC4 CMY-6 EC1010 (EC1010 (CMY-6) [7]): Y (key: X = MIC of less than 1 μg/mL; Y = MIC of 1 μg/mL to 10 μg/mL; Z = MIC of greater than 10 μg/mL)
- Ki (CTX-M-14): < 0.001 µM
- Ki (SHV-12): < 0.001 µM
- Ki (P99): < 0.001 µM
- Ki (OXA-48): < 0.001 µM
- PAM1032/KPC-2 Biapenem MPC64 (PAM1032/KPC-2): Z (Z Greater than 40)
- PAM1154/KPC-2 Biapenem MPC64 (PAM1154/KPC-2): X (key: X = Less than 10; Y = 10 to 40; Z Greater than 40)
- IC50 (CathepsinA): 15 to 500 µM
- IC50 (CathepsinG): < 15 µM
- TIG MPC4 CTX-M-15 KP1009 (KP1009 (CTX-M-15) [8]): Y (Y = MIC of 1 μg/mL to 10 μg/mL)
